Test results from patent publication US5006533A, “Certain 3-bromo-2,6-dimethoxybenzamides and pharmaceutical use thereof” (Boehringer Ingelheim GmbH, priority 1986, dated 1991).
Where a name gives a salt, the structure may show the parent alone.

Key:
[1] = system: apomorphine climbing, mouse; assay: apomorphine climbing test on the mouse; format: in vivo; conditions: after 1 h
[2] = system: rhesus monkeys sensitised with haloperidol; assay: dyskinesia in rhesus monkeys sensitised with haloperidol; format: in vivo, rhesus monkey; conditions: for Dyskinesia threshold dose p.o.: rhesus monkeys sensitised with haloperidol; for Dyskinesia index I:II: ratio of climbing test ED50 (I) to dyskinesia threshold dose (II)
From the text: The dyskinetic effects are among the most disturbing side effects of neuroleptic drugs. These include Parkinsonian manifestations such as tremor, rigidity and akinesia but also dyskinesia in the mouth-tongue-pharynx region.
The investigation of such symptoms in an animal model is possible using rhesus monkeys sensitised with haloperidol. After being given neuroleptic drugs, which have extrapyramidal motor effects in humans, these animals show typical dyskinesia in the mouth and tongue region (according to J. Liebmann and R. Neale, Psychopharmacology 68, 25-29 (1980) modified).

LD50 (mouse) p.o. = conditions: in vivo, po

Row | Compound | ED50 [1] [mg/kg] | Dyskinesia threshold dose p.o. [2] [mg/kg] | Dyskinesia index I:II [2] | LD50 (LD50 (mouse) p.o.) [mg/kg]
1 | COc1ccc(Br)c(OC)c1C(=O)NC1CC2CC(O)C(C1)N2Cc1ccccc1 (stereo not drawn) [X = H, N-(8-Benzyl-6-hydroxy-3-nortropanyl)-2,6-dimethoxy-3-bromobenzamide fumarate] | 1.2 | > 15 | < 0.08 | ~300
2 | COc1ccc(Br)c(OC)c1C(=O)NC1CC2CCC(C1)N2Cc1ccccc1 (stereo not drawn) [A, N-(8-benzyl-3-nortropanyl)-2,6-dimethoxy-3-bromobenzamide, reference compound] | 1.8 | 10 | 0.18 | ~300
3 | COc1ccc(Br)c(OC)c1C(=O)NC1CC2CC(O)C(C1)N2Cc1ccc(Cl)cc1 (racemic) [X = Cl, N-[8-(4-Chlorobenzyl)-6-hydroxy-3-nortropanyl]-2,6-dimethoxy-3-bromobenzamide-hydrochloride] | 0.85 | 30 | 0.028 | > 1000
4 | COc1ccc(Br)c(OC)c1C(=O)NC1CC2CC(O)C(C1)N2Cc1ccc(F)cc1 (stereo not drawn) [X = F, N-[8-(4-Fluorobenzyl)-6-hydroxy-3-nortropanyl]-2,6-dimethoxy-3-bromobenzamide-hydrochloride] | 0.63 | 8 | 0.078 | 
